Assay results: patent US12507703B2, “Methods, devices and compositions for preserving human milk” (The Trustees of Princeton University, priority 2023, dated 2025)
“And” between values parts separate entries of the source, which are not always exact repeats. Identical values can stand only once.

Tested on: lipase
Experiment: Lipase/lipolysis assay (EnzChek Lipase Substrate, quenched BODIPY-fatty acid conjugate) on stored human milk; further: test concentration or dose not given here

Row | SMILES | Lipase (RFU)
1 | C[C@H](CCC(=O)NCCS(=O)(=O)O)[C@H]1CC[C@H]2[C@@H]3[C@H](O)C[C@@H]4C[C@H](O)CC[C@]4(C)[C@H]3C[C@H](O)[C@]12C [Taurocholic acid (sodium)] | 1062.302 RFU and 748.8784 RFU
2 | C[C@H](CCC(=O)NCCS(=O)(=O)O)[C@H]1CC[C@H]2[C@@H]3[C@@H](O)C[C@@H]4C[C@H](O)CC[C@]4(C)[C@H]3CC[C@]12C.O.O [Tauroursodeoxycholate (dihydrate)] | 1204.528 RFU
3 | C[C@H](CCC(=O)NCCS(=O)(=O)[O-])[C@H]1CC[C@H]2[C@@H]3[C@@H](O)C[C@@H]4C[C@H](O)CC[C@]4(C)[C@H]3CC[C@]12C.[Na+] [Tauroursodeoxycholate (sodium)] | 939.6362 RFU
4 | COc1cc(O)c2c(=O)cc(-c3ccccc3)oc2c1 [Tectochrysin] | 890.4365 RFU
5 | CCCCCCCCCCCCCC(=O)O[C@H](CC(=O)[O-])C[N+](C)(C)C [Tetradecanoylcarnitine] | 951.8251 RFU
6 | C[C@]12CC[C@@H](O)C[C@H]1CC[C@@H]1[C@@H]2[C@@H](O)C[C@@]2(C)[C@H]1CC[C@]2(O)C(=O)CO [Tetrahydrocortisol] | 1127.321 RFU
7 | O=S(=O)(O)SSS(=O)(=O)O [Tetrathionate] | 924.2846 RFU
8 | OP(O)(O)=S [Thiophosphate] | 918.3175 RFU and 750.1825 RFU
9 | O=S(O)(O)=S [Thiosulfate] | 1139.701 RFU
10 | O=CC[C@H](O)[C@H](O)CO [Thyminose] | 811.3551 RFU
11 | Cc1ccc(C(C)C)c(O)c1 [Thymol] | 1327.554 RFU and 943.6199 RFU
12 | CC(C)=CCC[C@H](C)[C@@H]1CC[C@]2(C)C3=C(CC[C@@]12C)[C@@]1(C)CC[C@H](O)C(C)(C)[C@@H]1CC3 [Tirucallol] | 1060.924 RFU
13 | C[C@H]1CC[C@]2(NC1)O[C@H]1C[C@H]3[C@@H]4CC[C@H]5C[C@@H](O)CC[C@]5(C)[C@H]4CC[C@]3(C)[C@H]1[C@@H]2C [Tomatidine] | 1057.071 RFU
14 | C[C@H]1CC[C@]2(NC1)O[C@H]1C[C@H]3[C@@H]4CC[C@H]5C[C@@H](O[C@@H]6O[C@H](CO)[C@H](O[C@@H]7O[C@H](CO)[C@@H](O)[C@H](O[C@@H]8OC[C@@H](O)[C@H](O)[C@H]8O)[C@H]7O[C@@H]7O[C@H](CO)[C@@H](O)[C@H](O)[C@H]7O)[C@H](O)[C@H]6O)CC[C@]5(C)[C@H]4CC[C@]3(C)[C@H]1[C@@H]2C [Tomatine] | 635.5707 RFU
15 | COc1cc(O[C@@H]2O[C@H](CO)[C@@H](O)[C@H](O)[C@H]2O)c2c(O)c(C(C)=O)c(C)cc2c1 [Torachrysone-8-O-b-D-glucoside] | 1039.734 RFU
16 | O=c1cc(-c2ccccc2)oc2cc(O)cc(O[C@@H]3O[C@H](CO)[C@@H](O)[C@H](O)[C@H]3O)c12 [Toringin] | 1102.623 RFU
17 | COc1ccc(C[C@H]2COC(=O)[C@]2(O)Cc2ccc(O[C@@H]3O[C@H](CO)[C@@H](O)[C@H](O)[C@H]3O)c(OC)c2)cc1OC [Tracheloside] | 940.7065 RFU
18 | COc1cc(-c2cc(=O)c3c(O)cc(O)cc3o2)cc(OC)c1O [Tricin] | 691.2218 RFU
19 | CCOP(=O)(OCC)OCC [Triethyl Phosphate] | 963.8293 RFU
20 | CCCCC/C=C\C/C=C\CCCCCCCC(=O)OCC(COC(=O)CCCCCCC/C=C\C/C=C\CCCCC)OC(=O)CCCCCCC/C=C\C/C=C\CCCCC [Trilinolein] | 834.4039 RFU
21 | O=C(CCc1ccc(O)cc1)c1c(O)cc(O[C@@H]2O[C@H](CO)[C@@H](O)[C@H](O)[C@H]2O)cc1O [Trilobatin] | 813.3377 RFU and 1211.862 RFU

Row | SMILES | Lipase (RFU)
22 | C[N+](C)(C)[O-] [Trimethylamine N-oxide] | 948.4231 RFU and 1147.152 RFU
23 | CC1=C(O)C(=O)C=C2C1=CC=C1[C@@]2(C)CC[C@@]2(C)[C@@H]3C[C@](C)(C(=O)O)CC[C@]3(C)CC[C@]12C [Tripterin] | 952.6128 RFU
24 | CCCCCCCCCC(=O)OCC(COC(=O)CCCCCCCCC)OC(=O)CCCCCCCCC [Trisdecanoin] | 969.1379 RFU
25 | CN1[C@@H]2CC[C@H]1CC(=O)C2 [Tropinone] | 856.4439 RFU
26 | O=C(CO)[C@@H](O[C@H]1O[C@H](CO)[C@@H](O)[C@H](O)[C@H]1O)[C@H](O)[C@H](O)CO [Turanose] | 1221.239 RFU and 697.9672 RFU
27 | CC[C@H]1OC(=O)C[C@@H](O)[C@H](C)[C@@H](O[C@@H]2O[C@H](C)[C@@H](O[C@H]3C[C@@](C)(O)[C@@H](O)[C@H](C)O3)[C@H](N(C)C)[C@H]2O)[C@@H](CC=O)C[C@@H](C)C(=O)/C=C/C(C)=C/[C@@H]1CO[C@@H]1O[C@H](C)[C@@H](O)[C@@H](OC)[C@H]1OC [Tylosin (phosphate)] | 1132.19 RFU
28 | CC[C@H]1OC(=O)C[C@@H](O)[C@H](C)[C@@H](O[C@@H]2O[C@H](C)[C@@H](O[C@H]3C[C@@](C)(O)[C@@H](O)[C@H](C)O3)[C@H](N(C)C)[C@H]2O)[C@@H](CC=O)C[C@@H](C)C(=O)/C=C/C(C)=C/[C@@H]1CO[C@@H]1O[C@H](C)[C@@H](O)[C@@H](OC)[C@H]1OC.O=C(O)C(O)C(O)C(=O)O [Tylosin (tartrate)] | 942.0391 RFU
29 | NC(N)=O [Urea] | 934.3458 RFU and 864.3039 RFU
30 | NC(=O)NCCC(=O)O [Ureidopropionic acid] | 1035.138 RFU
31 | O=c1[nH]c(=O)c2[nH]c(=O)[nH]c2[nH]1.[Na] [Uric acid (sodium)] | 855.3809 RFU
32 | O=C(O)/C=C/c1c[nH]cn1 [Urocanic acid] | 1101.226 RFU
33 | C[C@H](CCC(=O)O)[C@H]1CC[C@H]2[C@@H]3[C@@H](O)C[C@@H]4C[C@H](O)CC[C@]4(C)[C@H]3C[C@H](O)[C@]12C [Ursocholic acid] | 879.9608 RFU
34 | C=C(C)[C@@H]1CCC2=CCC[C@@H](C)[C@]2(C)C1 [Valencene] | 980.1668 RFU
35 | COc1cc(CC(=O)C(=O)O)ccc1O [Vanilpyruvic acid] | 1086.418 RFU
36 | NC(=O)CC[C@@H]1NC(=O)[C@H](Cc2ccccc2)NC(=O)[C@H](Cc2ccc(O)cc2)NC(=O)[C@@H](N)CSSC[C@@H](C(=O)N2CCC[C@H]2C(=O)N[C@@H](CCCN=C(N)N)C(=O)NCC(N)=O)NC(=O)[C@H](CC(N)=O)NC1=O [Vasopressin] | 1150.397 RFU
37 | COc1ccc(C=O)cc1OC [Veratraldehyde] | 898.3756 RFU and 979.6116 RFU
38 | COc1ccc(C(=O)O)cc1OC [Veratric acid] | 944.3491 RFU
39 | COC(=O)C1=CO[C@@H](O[C@@H]2O[C@H](CO)[C@@H](O)[C@H](O)[C@H]2O)[C@H]2[C@@H]1C(=O)C[C@@H]2C [Verbenalin] | 1051.385 RFU
40 | O=c1cc(-c2ccc(O)cc2)oc2c([C@@H]3O[C@H](CO)[C@@H](O)[C@H](O)[C@H]3O)c(O)c([C@@H]3O[C@H](CO)[C@@H](O)[C@H](O)[C@H]3O)c(O)c12 [Vicenin 2] | 893.9745 RFU
41 | O=c1cc(-c2ccc(O)cc2)oc2c([C@@H]3OC[C@@H](O)[C@H](O)[C@H]3O)c(O)c([C@@H]3O[C@H](CO)[C@@H](O)[C@H](O)[C@H]3O)c(O)c12 [Vicenin 3] | 1057.755 RFU
42 | O=c1cc(-c2ccc(O)cc2)oc2c([C@@H]3O[C@H](CO)[C@@H](O)[C@H](O)[C@H]3O)c(O)c([C@@H]3OC[C@@H](O)[C@H](O)[C@H]3O)c(O)c12 [Vicenin-1] | 1046.904 RFU
